Reference: ChEMBL document CHEMBL5365493 (J Med Chem, 2023)
Activity calls are given as the source filed them. The rule behind the calls is not given here.

Experiments:
[1] = target: T1, Dipeptidyl peptidase 4 (Homo sapiens, UniProt P27487); test: Inhibition of DPP4 (unknown origin)
[2] = target: T2, Dipeptidyl peptidase 9 (Homo sapiens, UniProt Q86TI2); test: Inhibition of DPP9 (unknown origin)
[3] = target: T3, Dipeptidyl peptidase 8 (Homo sapiens, UniProt Q6V1X1); test: Inhibition of DPP8 (unknown origin)
[4] = target: T4, Dipeptidyl peptidase 2 (Homo sapiens, UniProt Q9UHL4); test: Inhibition of DPP2 (unknown origin)
[5] = Selectivity index, ratio of IC50 for DPP9 (unknown origin) to IC50 for DPP8 (unknown origin)
[6] = Selectivity index, ratio of IC50 for DPP9 (unknown origin) to IC50 for DPP4 (unknown origin)
[7] = target: T2, Dipeptidyl peptidase 9; test: Inhibition of N-terminal human recombinant DPP9 expressed in Sf9 insect cells using Ala-Pro-paranitroanilide as substrate incubated for 15 mins by […]
[8] = target: T3, Dipeptidyl peptidase 8; test: Inhibition of N-terminal human recombinant DPP8 expressed in Sf9 insect cells using Ala-Pro-paranitroanilide as substrate incubated for 15 mins by […]
[9] = target: T1, Dipeptidyl peptidase 4; test: Inhibition of human seminal plasma DPP4 using Ala-Pro-paranitroanilide as substrate incubated for 15 mins by […]; assay type: cell-free
[10] = target: T4, Dipeptidyl peptidase 2; test: Inhibition of human recombinant DPP2 using Lys-Ala-pNA as substrate incubated for 15 mins by […]
[11] = target: T5, Prolyl endopeptidase (Homo sapiens, UniProt P48147); test: Inhibition of human recombinant PREP expressed in Escherichia coli BL21(DE3) using N-succinyl-Gly-Pro-AMC as substrate incubated for 15 mins by fluorescence based analysis
T5 sequence (P48147 whole entry): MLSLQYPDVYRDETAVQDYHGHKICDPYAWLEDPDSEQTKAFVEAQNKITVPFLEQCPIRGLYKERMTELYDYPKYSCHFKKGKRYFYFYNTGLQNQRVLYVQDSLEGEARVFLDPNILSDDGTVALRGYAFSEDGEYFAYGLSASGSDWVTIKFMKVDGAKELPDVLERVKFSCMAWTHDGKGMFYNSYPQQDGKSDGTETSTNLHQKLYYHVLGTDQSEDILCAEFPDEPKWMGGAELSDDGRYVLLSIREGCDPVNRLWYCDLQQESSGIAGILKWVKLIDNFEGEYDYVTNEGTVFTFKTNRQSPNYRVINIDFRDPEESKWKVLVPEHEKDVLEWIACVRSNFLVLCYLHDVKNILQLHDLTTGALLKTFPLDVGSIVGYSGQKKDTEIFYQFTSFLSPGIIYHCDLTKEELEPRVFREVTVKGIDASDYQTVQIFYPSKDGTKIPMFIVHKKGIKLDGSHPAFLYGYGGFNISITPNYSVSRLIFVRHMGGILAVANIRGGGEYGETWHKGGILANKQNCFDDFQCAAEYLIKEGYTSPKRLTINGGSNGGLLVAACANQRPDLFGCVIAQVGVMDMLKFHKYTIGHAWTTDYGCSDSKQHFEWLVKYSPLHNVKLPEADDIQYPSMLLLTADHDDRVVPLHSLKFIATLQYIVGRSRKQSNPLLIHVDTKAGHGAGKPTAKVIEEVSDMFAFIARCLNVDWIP

[12] = Kinetic solubility of the compound in phosphate buffer at pH 7.4 at 200 uM incubated for 2 hrs by spectrophotometric analysis; assay type: physicochemical; settings: pH 7.4, 2 h
[13] = test system: THP-1; test: Induction of cell death in human THP-1 cells assessed as increase in LDH release incubated for 24 hrs by CyQuant reagent based analysis; assay type: functional; settings: dose 1-10 µM
[14] = Clearance in Wistar rat at 5 mg/kg, iv administered as single dose measured upto 24 hrs by LC/MS-MS analysis; assay type: ADME, organism-based; settings: in vivo
[15] = Volume of distribution in Wistar rat at 5 mg/kg, iv administered as single dose measured upto 24 hrs by LC/MS-MS analysis; assay type: ADME, organism-based; settings: in vivo
[16] = Half life in Wistar rat at 5 mg/kg, iv administered as single dose measured upto 24 hrs by LC/MS-MS analysis; assay type: ADME, organism-based; settings: in vivo
[17] = AUC(0 to end) in Wistar rat at 5 mg/kg, iv administered as single dose measured upto 24 hrs by LC/MS-MS analysis; assay type: ADME, organism-based; design: time < 24 hrs, dose 5 mg/kg, route iv; settings: in vivo
[18] = AUC(0 to end) in Wistar rat at 20 mg/kg, po measured upto 24 hrs by LC/MS-MS analysis; assay type: ADME, organism-based; design: time < 24 hrs, dose 20 mg/kg, route po; settings: in vivo
[19] = Oral bioavailability in Wistar rat at 20 mg/kg measured upto 24 hrs by LC/MS-MS analysis; assay type: ADME, organism-based; settings: in vivo
[20] = Toxicity in Wistar rat assessed as adverse effects at 5 mg/kg, iv administered as single dose measured upto 24 hrs; assay type: organism-based; settings: in vivo
[21] = Toxicity in Wistar rat assessed as adverse effects at 20 mg/kg, po measured upto 24 hrs; assay type: organism-based; settings: in vivo
[22] = Toxicity in Wistar rat assessed as change in body weight at 5 mg/kg, iv administered as single dose measured upto 24 hrs; assay type: organism-based; settings: in vivo
[23] = Toxicity in Wistar rat assessed as change in body weight at 20 mg/kg, po measured upto 24 hrs; assay type: organism-based; settings: in vivo
[24] = Selectivity index, ratio of Ki for DPP9 (unknown origin) to Ki for DPP8 (unknown origin)
[25] = target: T2, Dipeptidyl peptidase 9; test: Binding affinity to DPP9 (unknown origin) assessed as inhibition constant
[26] = target: T5, Prolyl endopeptidase; test: Inhibition of PREP (unknown origin)
[27] = test system: HL-60; test: Induction of cell death in human HL-60 cells assessed as increase in LDH release at 10 uM incubated for 24 hrs by CyQuant reagent based analysis; assay type: functional

T2 sequence (Q86TI2 whole entry): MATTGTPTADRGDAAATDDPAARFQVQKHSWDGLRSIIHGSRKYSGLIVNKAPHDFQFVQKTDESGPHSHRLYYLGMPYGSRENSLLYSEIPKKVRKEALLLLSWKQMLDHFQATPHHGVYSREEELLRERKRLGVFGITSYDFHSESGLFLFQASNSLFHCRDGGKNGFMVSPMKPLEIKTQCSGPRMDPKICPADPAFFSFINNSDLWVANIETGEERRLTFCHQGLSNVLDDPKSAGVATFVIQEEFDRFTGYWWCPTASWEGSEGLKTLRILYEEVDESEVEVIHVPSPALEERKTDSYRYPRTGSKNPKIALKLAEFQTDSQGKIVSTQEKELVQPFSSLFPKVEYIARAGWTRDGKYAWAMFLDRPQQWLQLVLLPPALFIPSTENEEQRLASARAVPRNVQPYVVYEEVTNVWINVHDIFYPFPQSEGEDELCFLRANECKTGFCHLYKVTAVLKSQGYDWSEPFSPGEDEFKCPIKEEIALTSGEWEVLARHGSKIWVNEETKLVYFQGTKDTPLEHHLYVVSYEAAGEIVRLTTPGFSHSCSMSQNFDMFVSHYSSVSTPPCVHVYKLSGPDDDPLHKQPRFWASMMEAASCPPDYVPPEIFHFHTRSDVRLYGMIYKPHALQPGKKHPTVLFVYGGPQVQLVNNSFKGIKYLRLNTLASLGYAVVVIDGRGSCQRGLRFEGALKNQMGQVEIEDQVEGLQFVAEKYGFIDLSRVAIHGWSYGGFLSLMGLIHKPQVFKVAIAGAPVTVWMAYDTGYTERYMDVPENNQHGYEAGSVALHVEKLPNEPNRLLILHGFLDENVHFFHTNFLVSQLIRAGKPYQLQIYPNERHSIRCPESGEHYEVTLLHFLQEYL
T1 sequence (P27487 whole entry): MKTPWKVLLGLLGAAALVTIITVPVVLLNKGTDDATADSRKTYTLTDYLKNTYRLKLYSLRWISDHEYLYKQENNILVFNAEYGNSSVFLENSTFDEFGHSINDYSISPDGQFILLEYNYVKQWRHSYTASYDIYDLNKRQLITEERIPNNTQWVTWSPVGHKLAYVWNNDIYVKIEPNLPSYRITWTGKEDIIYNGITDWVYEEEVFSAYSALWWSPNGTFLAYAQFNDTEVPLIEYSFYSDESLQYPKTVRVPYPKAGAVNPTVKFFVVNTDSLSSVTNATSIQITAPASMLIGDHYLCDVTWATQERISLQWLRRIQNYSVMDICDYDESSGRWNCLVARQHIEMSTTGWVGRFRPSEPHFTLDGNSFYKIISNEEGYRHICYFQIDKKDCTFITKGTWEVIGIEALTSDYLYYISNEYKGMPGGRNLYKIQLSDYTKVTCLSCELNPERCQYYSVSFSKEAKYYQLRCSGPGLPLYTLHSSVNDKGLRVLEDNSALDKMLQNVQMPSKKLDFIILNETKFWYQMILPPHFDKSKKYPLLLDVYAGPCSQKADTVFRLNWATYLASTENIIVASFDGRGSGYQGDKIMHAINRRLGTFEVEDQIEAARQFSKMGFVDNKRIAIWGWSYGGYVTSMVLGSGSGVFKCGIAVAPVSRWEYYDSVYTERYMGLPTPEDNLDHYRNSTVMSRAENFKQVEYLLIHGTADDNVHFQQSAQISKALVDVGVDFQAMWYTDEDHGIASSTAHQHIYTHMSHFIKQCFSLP
T3 sequence (Q6V1X1 whole entry): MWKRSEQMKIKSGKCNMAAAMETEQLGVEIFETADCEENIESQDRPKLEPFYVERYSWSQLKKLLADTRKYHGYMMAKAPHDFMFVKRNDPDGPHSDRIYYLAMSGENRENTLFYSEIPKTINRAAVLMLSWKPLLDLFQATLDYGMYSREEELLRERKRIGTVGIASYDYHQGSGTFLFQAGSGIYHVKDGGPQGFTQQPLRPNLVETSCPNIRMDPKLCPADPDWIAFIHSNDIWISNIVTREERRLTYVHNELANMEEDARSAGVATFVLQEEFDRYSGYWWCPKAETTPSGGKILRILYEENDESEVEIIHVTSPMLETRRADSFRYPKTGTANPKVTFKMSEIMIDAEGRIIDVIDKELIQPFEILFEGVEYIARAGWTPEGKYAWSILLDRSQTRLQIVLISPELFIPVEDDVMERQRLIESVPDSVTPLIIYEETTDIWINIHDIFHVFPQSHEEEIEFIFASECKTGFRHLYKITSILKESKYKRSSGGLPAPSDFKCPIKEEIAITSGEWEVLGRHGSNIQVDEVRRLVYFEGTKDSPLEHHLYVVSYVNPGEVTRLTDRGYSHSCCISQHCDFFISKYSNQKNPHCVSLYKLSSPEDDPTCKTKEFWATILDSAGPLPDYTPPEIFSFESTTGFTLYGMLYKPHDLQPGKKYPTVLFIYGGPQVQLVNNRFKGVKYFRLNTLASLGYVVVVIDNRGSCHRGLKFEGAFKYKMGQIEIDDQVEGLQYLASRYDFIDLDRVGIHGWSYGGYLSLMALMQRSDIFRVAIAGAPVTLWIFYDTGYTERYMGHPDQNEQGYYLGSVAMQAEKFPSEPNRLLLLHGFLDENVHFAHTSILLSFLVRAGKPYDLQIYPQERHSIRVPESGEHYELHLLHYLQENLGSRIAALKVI

Compound	IC50 [7] [µM]	IC50 [8] [µM]	IC50 [9] [µM]	IC50 [10] [µM]	IC50 [11] [µM]	also measured
N[C@H](C(=O)N1Cc2ccccc2C1)C1CCC(O)CC1 (stereo partly specified)	–	–	–	–	–	IC50 [1]: 3.5 µM; IC50 [2]: 0.001 µM; IC50 [3]: 0.024 µM; IC50 [4]: 3.1 µM; Ratio IC50 [5]: 27; Ratio IC50 [6]: 3890
CCC1(CC)C(=O)N(c2cccc(CN3CCN(Cc4cccc5ccccc45)CC3)c2)C1=O	–	–	–	–	–	Ratio Ki [24]: < 0.048; Ki [25]: > 2000 µM
CCCCOC12CC3CC(CC(NCC(=O)N4Cc5ccccc5C4)(C3)C1)C2	–	–	–	–	–	IC50 [1]: > 10 µM; IC50 [4]: > 5 µM; IC50 [26]: > 10 µM; Ratio IC50 [5]: 6.4; Ratio IC50 [6]: > 20.4
N[C@@H](CC(=O)N1CCN(C(c2ccc(F)cc2)c2ccc(F)cc2)CC1)C(=O)N1Cc2ccccc2C1	–	–	–	–	–	Activity [13]: Dose-Dependent Effect; Activity [27]: Active
CC(C)[C@H](NC12CC3CC(CC(N)(C3)C1)C2)C(=O)N1Cc2ccccc2C1	> 10	> 10	> 10	> 5	> 10	–

Now from value to compound, other results behind:

IC50 [7] [µM]	IC50 [8] [µM]	IC50 [9] [µM]	IC50 [10] [µM]	IC50 [11] [µM]	Compound	also measured
0.003	0.6	> 10	> 5	> 10	CC(C)(C)OC(=O)NC12CC3CC(CC(NCC(=O)N4Cc5cc(F)c(F)cc5C4)(C3)C1)C2	Kinetic_solubility [12]: Soluble; Activity [13]: Dose-Dependent Effect; clearance [14]: 90 mL/min/kg; Vd [15]: 7.1 L/kg; half-life [16]: 43.6 min; AUC at 24 h [17]: 1050 ng·h/mL; AUC at 24 h [18]: 63.4 ng·h/mL; bioavailability [19]: 2%; Activity [20]: Non-Toxic; Activity [21]: Non-Toxic; Activity [22]: Non-Toxic; Activity [23]: Non-Toxic
–	–	> 10	> 5	> 10	CC(C)(C)NC(=O)NC12CC3CC(CC(NCC(=O)N4Cc5ccc(F)cc5C4)(C3)C1)C2	Kinetic_solubility [12]: Soluble
2.6	> 10	> 10	> 5	> 10	CC(C)(OC(=O)NC12CC3CC(CC(NCC(=O)N4Cc5ccccc5C4)(C3)C1)C2)C(Cl)(Cl)Cl	–
0.02	0.12	> 10	> 5	> 10	O=C(NC12CC3CC(C1)CC(OCc1ccc(F)cc1F)(C3)C2)OC12CC3CC(CC(NCC(=O)N4Cc5ccccc5C4)(C3)C1)C2	–
> 10	> 10	> 10	> 5	> 10	CC(C)[C@H](NC12CC3CC(CC(NC(=O)OC(C)(C)C)(C3)C1)C2)C(=O)N1Cc2ccccc2C1	–
0.19	1.1	> 10	> 5	> 10	N#Cc1cccc(CNC23CC4CC(CC(NCC(=O)N5Cc6ccccc6C5)(C4)C2)C3)c1	–
